Experimental data as given in patent US20210228463A1, “COMPOSITION FOR FAT FORMATION INHIBITION AND BODY FAT REDUCTION, CONTAINING HYDRANGENOL AS ACTIVE INGREDIENT” (COSMAX BIO CO., LTD., priority 2019, published 2021).

Tested on: 3T3-L1 cells
Experiment: Fat accumulation inhibition in adipocytes (Oil Red O staining)
Type: cell-based
Conditions: 3T3-L1 adipocytes, hydrangenol 2.5 ug/ml
Experimental: In this experiment, to induce adipocyte differentiation, 3T3-L1 cells were dispensed onto a plate and cultured in a 10% BS medium until the cell density reached 100%. At the cell differentiation stage, hydrangenol-containing hydrangea (Hydrangea serrata) (25 ug/ml), hydrangenol (2.5 ug/ml) or a positive control pioglatazone (10 uM) was added to a 10% FBS differentiation medium (5 μg/ml of insulin, 1 μM dexametasone, 0.5 mM 3-isobutyl-1-methylxanthine), respectively. After 10 days of treatment oil Red-O staining and quantitative analysis were performed to determine how much fat accumulation was inhibited. For visual evaluation, images were taken after staining, and then the stained cells were completely dried, dissolved in dimethyl sulfoxide (DMSO), transferred to a 96-well plate, and absorbance at 450 nm was measured.

O=C1OC(c2ccc(O)cc2)Cc2cccc(O)c21 (stereo not shown) [HG, 8-hydroxy-3-(4-hydroxyphenyl)-3,4-dihydroisochromen-1-one]
triglyceride production in adipocytes: suppressed
